Converted amounts (≈) assume the structure as drawn. “And” between values parts separate entries of the source, which are not always exact repeats. Equal values may be shown once. Read-outs that look alike come from different tables or passages of the source.
Legend:
COS7 cells = assay: cells; format: cell-based; conditions: for IC50: Chlorocebus aethiops, COS-7, COS7 cells, 24 hrs
Method: (§1) Stock solutions of the test agents were prepared in DMSO (40 mg/mL) and stored at −20 °C until use. AlamarBlue HS™ cell viability reagent was acquired from Invitrogen (Cat # A50100, Carlsbad, CA). COS7 and HEK293 cells (obtained from ATCC) were cultured and tested at 37 °C in a 5% CO2/100% humidity environment in DMEM media supplemented with 10% fetal bovine serum. Cells were trypsinized, centrifuged, resuspended in cell media, counted on a hemacytometer, and diluted to an appropriate cell density to give the desired number of cells per 300 μl media. Cells were then loaded into 48-well cell culture plates (3548; Corning, Inc.); 300 μl/well at 60,000 cells per well. The cell density was determined in preliminary tests to give linear AlamarBlue HS™ readings over a 3.5 h period for HEK293 cells and 2 h period for COS7 cells after 2 days of growth; 2 wells per plate were loaded with 300 μl/well of cell-free media to provide background readings. Plates were cultured overnight, after which test agent solutions were prepared in media at the highest test concentration (100 ug/mL) and at five serial dilutions, each containing 0.25% DMSO and 0.125% Kolliphor® EL (Cat# 27963, Sigma Aldrich). The compounds concentrations were then loaded in separate columns via 300 μl/well. […] Normalized values representing the amount of AlamarBlue converted to its […] form were calculated for each well using background-corrected absorbances as described by the Alamar-Blue HS protocol information packet available from Invitrogen Technical Support. The fraction of control viability for each agent concentration with each cell line was then determined by the ratio of normalized values for the treated wells to the control wells. […] Values were determined by linear interpolation of fraction of control growth against concentration for the test agent concentrations.

HEK293 cells = assay: cells; format: cell-based; conditions: Homo sapiens, Hek293 cells, 24 hrs
Method: as §1

in vitro = format: cell-based
Method: as §1

AcpS_R48A = molecular target: T1, AcpS_R48A (Escherichia coli, UniProt P24224, R48A); assay: Inhibition of purified AcpS site-directed mutant by drug (Suppl Fig 3 source data); format: biochemical; conditions: for AcpS rate nM/min, Mean / AcpS rate: Suppl Fig 3, [AcpS_R48A] 5 nM; for AcpS rate: replicates
T1 construct: 6x-His (C); made in house

MRSA (ATCC 33591) = assay: Rabbit ischemic ear wound model of infection by MRSA, topical treatment; format: in vivo, New Zealand White rabbits; conditions: for % wound closure / wound size (mean) / Wound size (mm2): Fig 2a; for Wound size (mm2): individual wounds
Method: New Zealand White rabbits from Charles River were employed for this study. Both male and female rabbits were used; sample size prevented disaggregation of data by sex. Investigators were blinded to group allocation, data collection, and data analysis. Food and water were given ad libidum and animals were acclimatized for 7 days with photoperiods of alternating 12 h light and dark at 21 °C in relative humidity of 40–50%. The formulation for delivery of DNM compounds was Glaxal base (WellSpring Pharmaceutical Canada Corp., Oakville, Canada). Formulation was performed by dissolving compound in Glaxal base to give final concentrations of 1% or 2% DNM compound (w/v). The analgesic (Buprenex 0.02 mg/kg sc) and anesthesia (isoflurane (0.5–5% with oxygen carrier 0.5–2 L/min) were used as required during procedures. An ischemia wound healing model was conducted surgically. Each wound was inoculated with 50 μl of 2 × 10^7 CFU/mL MRSA (ATCC #33591) and dressed. After 1 day, wounds were treated with either 50 μl control cream containing vehicle or 50 μl cream containing compound daily. Wounds were assessed and observations recorded using the Draize scoring system. Digital photographs of each wound were obtained and documented.

[1] = read-out: IC50 (cell viability)
[2] = read-out: Log IC50 (cell viability) (converted)

T1 sequence (P24224 whole entry R48A): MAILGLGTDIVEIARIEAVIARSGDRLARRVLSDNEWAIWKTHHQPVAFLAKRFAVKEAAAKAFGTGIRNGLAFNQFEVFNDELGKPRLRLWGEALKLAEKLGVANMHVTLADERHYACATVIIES

## CC(C)c1cc(Cl)ccc1-c1cc(-c2nnn[nH]2)c(-c2ccc(Cl)cc2C(C)C)s1 [DNM0547]
COS7 cells; [1]
  IC50: 21.2 µg/mL (≈ 46.3 µM)
COS7 cells; [2]
  IC50: 21.2 µg/mL (≈ 46.3 µM)
COS7 cells; Suppl Fig 9, COS7 cells, Alamar Blue HS, Conc. 40000 ng/ml
  Fluorescence (FI): 261 FI
HEK293 cells; [1]
  IC50: 41.5 µg/mL (≈ 90.8 µM)
HEK293 cells; [2]
  IC50: 41.5 µg/mL (≈ 90.7 µM)
In vitro; African green monkey
  CC50 at 24 h: 21 µg/mL (≈ 45.9 µM)
In vitro; human
  CC50 at 24 h: 41 µg/mL (≈ 89.6 µM)
AcpS_R48A; Drug Conc 1 uM
  AcpS rate nM/min, Mean: 97.88 nM/min
  AcpS rate: 102.89 nM/min and 96.62 nM/min and 94.12 nM/min
AcpS_R48A; Drug Conc 2 uM
  AcpS rate nM/min, Mean: 93.89 nM/min
  AcpS rate: 97.97 nM/min and 91.69 nM/min and 92.02 nM/min
AcpS_R48A; Drug Conc 4 uM
  AcpS rate nM/min, Mean: 94.54 nM/min
  AcpS rate: 95.47 nM/min and 93.88 nM/min and 94.27 nM/min
AcpS_R48A; Drug Conc 8 uM
  AcpS rate nM/min, Mean: 92.47 nM/min
  AcpS rate: 92.76 nM/min and 91.81 nM/min and 92.85 nM/min
AcpS_R48A; Drug Conc 16 uM
  AcpS rate nM/min, Mean: 48.14 nM/min
  AcpS rate: 58.48 nM/min and 54.48 nM/min and 31.45 nM/min
AcpS_R48A; Drug Conc 32 uM
  AcpS rate nM/min, Mean: 20.22 nM/min
  AcpS rate: 22.18 nM/min and 16.02 nM/min and 22.44 nM/min
AcpS_R48A; Drug Conc 64 uM
  AcpS rate nM/min, Mean: 10.15 nM/min
  AcpS rate: 9.77 nM/min and 11.77 nM/min and 8.90 nM/min
AcpS_R48A; Drug Conc 128 uM
  AcpS rate nM/min, Mean: 4.77 nM/min
  AcpS rate: 4.67 nM/min (2×) and 4.95 nM/min
AcpS_R48A; read-out: % of untreated, Suppl Fig 3, [AcpS_R48A] 5 nM, Drug Conc 1 uM, replicates
  remaining activity at 1 µM: 106%
AcpS_R48A; read-out: % of untreated, Suppl Fig 3, [AcpS_R48A] 5 nM, Drug Conc 2 uM, replicates
  remaining activity at 2 µM: 101%
AcpS_R48A; read-out: % of untreated, Suppl Fig 3, [AcpS_R48A] 5 nM, Drug Conc 4 uM, replicates
  remaining activity at 4 µM: 98.7%
AcpS_R48A; read-out: % of untreated, Suppl Fig 3, [AcpS_R48A] 5 nM, Drug Conc 8 uM, replicates
  remaining activity at 8 µM: 95.9%
AcpS_R48A; read-out: % of untreated, Suppl Fig 3, [AcpS_R48A] 5 nM, Drug Conc 32 uM, replicates
  remaining activity at 32 µM: 22.9%
AcpS_R48A; read-out: % of untreated, Suppl Fig 3, [AcpS_R48A] 5 nM, Drug Conc 64 uM, replicates
  remaining activity at 64 µM: 10.1%
AcpS_R48A; read-out: % of untreated, Suppl Fig 3, [AcpS_R48A] 5 nM, Drug Conc 128 uM, replicates
  remaining activity at 128 µM: 4.83%
MRSA (ATCC 33591); Day 1
  % wound closure: 0%
  wound size (mean): 30.44 mm2
  Wound size (mm2): 29.51 mm2 and 29.83 mm2 and 28.32 mm2 and 27.53 mm2 and 32.52 mm2 and 34.03 mm2 and 26.69 mm2 and 25.2 mm2 and 36.13 mm2 and 34.64 mm2
MRSA (ATCC 33591); Day 3
  % wound closure: 2.62%
  wound size (mean): 29.642 mm2
  Wound size (mm2): 31.06 mm2 and 29.08 mm2 and 27.25 mm2 and 24.3 mm2 and 31.24 mm2 and 33.16 mm2 and 27.53 mm2 and 25.7 mm2 and 33.48 mm2 and 33.62 mm2
MRSA (ATCC 33591); Day 6
  % wound closure: 5.42%
  wound size (mean): 28.797 mm2
  Wound size (mm2): 28.85 mm2 and 31.18 mm2 and 26.33 mm2 and 24.01 mm2 and 30.73 mm2 and 32.69 mm2 and 26.4 mm2 and 21.93 mm2 and 33.19 mm2 and 32.66 mm2
MRSA (ATCC 33591); Day 9
  % wound closure: 32.45%
  wound size (mean): 20.563 mm2
  Wound size (mm2): 23.09 mm2 and 21.11 mm2 and 22.61 mm2 and 20.99 mm2 and 19.44 mm2
MRSA (ATCC 33591); Day 12
  % wound closure: 53.18%
  wound size (mean): 14.254 mm2
MRSA (ATCC 33591); Day 15
  % wound closure: 73.94%
  wound size (mean): 7.93 mm2
  Wound size (mm2): 10.17 mm2 and 8.72 mm2 and 14.95 mm2 and 20.1 mm2 and 0.9 mm2 and 0.08 mm2 and 1.02 mm2 and 4 mm2 and 10.8 mm2 and 8.56 mm2
MRSA (ATCC 33591); Day 18
  % wound closure: 87.25%
  wound size (mean): 3.88 mm2
  Wound size (mm2): 8.29 mm2 and 0.93 mm2 and 7.78 mm2 and 10.81 mm2 and 0.41 mm2 and 0 mm2 and 0.53 mm2 and 2.2 mm2 and 3.09 mm2 and 4.76 mm2
MRSA (ATCC 33591); Day 21
  % wound closure: 97.93%
  wound size (mean): 0.636 mm2
  Wound size (mm2): 0 mm2 (8×) and 5.12 mm2 and 1.24 mm2
MRSA (ATCC 33591); quantitative microbiology at day 14, topical
  reduction in bacterial survival as compared to vehicle control: > 99%
MRSA (ATCC 33591); topical 2%
  bacteria in the wound (CFUs per gram of tissue at end of study): effectively eliminated bacteria from the wound
  day of complete wound closure: ≤ 21 days
MRSA (ATCC 33591); topical for 14 days, versus vehicle control
  wound closure: significantly improved wound closure

From publication PMC11436758, “Computer-aided drug design to generate a unique antibiotic family” (Nature Communications, 2024)
